The source of these data is patent US12576040B2, “Ionizable lipids and methods of manufacture and use thereof” (priority 2020, dated 2026).

Like-named read-outs stand apart in the source and are kept apart here. Marks after values point to notes of the source that are not given here.

Data set [1] is classed as physicochemical. The settings on record: for pKa,ZP: LNP containing the ionizable lipid, Henderson Hasselbalch fit to zeta potential; for pI, ZP: LNP isoelectric pI from zeta potential. As to the method:
(§1) • A: Ribogreen Assay for mRNA Encapsulation Efficiency. 1×TE Buffer and Triton Buffer (2% v/v in 1×TE Buffer) were added in duplicates into a black microplate per LNP. LNPs were diluted to 4 ng/ul in 1×DPBS pH 7.4 and added to each TE/Triton well in a ratio 1:1. Two standard curves were included in the Ribogreen Assay, one containing mRNA and 1×TE Buffer and other containing mRNA and Triton Buffer. Each one of these standard curves were used to calculate the mRNA concentration in each TE Buffer or Triton Buffer. This approach using two standard curves is more accurate for calculating the encapsulation efficiency and mRNA concentrations, in comparison to a single standard curve. Standards were included in the microplate after diluted LNPs were added to the plate. Microplates were incubated at 37° C. for 10 minutes to extract LNPs with Triton. Ribogreen reagent was diluted 1:100 in 1×TE Buffer and added to each well in a ratio 1:1. Microplates were immediately introduced into the Cytation 5 Cell Imaging Multi-Mode Reader (Biotek) to read Fluorescence (Ex485/Em528). The results are illustrated in FIG. 34. • B: Dynamic Light Scattering for LNP Size (red dots are PDI right y axis). LNPs were diluted to 6.25 ng/ul in 1×DPBS pH 7.4 and transferred into a quartz cuvette (ZEN2112) to measure size by Dynamic Light Scattering (DLS) in the Zetasizer Nano ZS (Malvern Panalytical) using particle RI of 1.45 and Absorption of 0.001 in 1×PBS at 25° C. with viscosity of 1.02 cP and RI of 1.335. Measurements were made using a 173° Backscatter angle of detection previously equilibrated to 25° C. for 30 seconds in duplicates, each with 5 runs and 10 second run duration, without delay between measurements. […] Data was analyzed using a General-Purpose model with normal resolution. The results are illustrated in FIG. 35. • C: Zeta Potential for LNP charge, pKa and pI. LNPs were diluted in a 75 mM TNS Buffer (10 mM of each of glycylglycine, acetate, imidazole, 20 mM borate, 25 mM NaCl) to contain 0.8 mg of total mRNA in 800 ul of the TNS Buffer and transferred into a Folded Capillary Zeta Cell (DTS1070) to measure size by Dynamic Light Scattering (DLS) and electrophoretic mobility by Electrophoretic Light Scattering (ELS) in the Zetasizer Nano ZS (Malvern Panalytical). Zeta potential is measured under conditions of controlled voltage to limit ohmic heating in a solution with 4 buffers with pKas spread across the pH range 3-10 with 0.5 intervals. LNP pKa is calculated by fitting the Henderson Hasselbalch equation to zeta potential data. LNP pI is found by interpolating zeta potential to zero. We use electrokinetic models to calculate Henry's function and charge of the LNP. The results are illustrated in FIG. 36. • D: TNS Assay for LNP pKa. LNPs were diluted to keep a final concentration of 75 uM of the ionizable lipid and 6 uM of TNS in a 75 mM TNS Buffer (10 mM of each of glycylglycine, acetate, imidazole, 20 mM borate, 25 mM NaCl) in order to keep a ratio TNS/ionizable of 0.08. Fluorescence TNS is measured in a solution with 4 buffers with pKas spread across the pH range 3-10 with 0.5 intervals. The pKa of the LNP was measured using the pH-dependence of fluorescence enhancement of the anionic dye TNS, higher intensity at lower pH and lower at high pH. LNP pKa is calculated by fitting the Henderson Hasselbalch equation to fluorescence data from the TNS Assay. The results are illustrated in FIG. 37.
LNPs were diluted to 6.25 ng/μL total mRNA in PBS pH=7.4 and transferred into a quartz cuvette (ZEN2112) to measure size by Dynamic Light Scattering (DLS) in the Zetasizer Nano ZS (Malvern Panalytical) using particle RI of 1.45 and absorption of 0.001 in PBS at 25° C. with viscosity of 0.888 cP and RI of 1.335. Measurements were made using a 1730 backscatter angle of detection previously equilibrated to 25° C. for 30 seconds in duplicates, each with 5 runs and 10 second run duration, without delay between measurements. […]

Data set [2] is classed as physicochemical. The settings on record: LNP containing the ionizable lipid. As to the method: as §1, with “LNPs were diluted to keep a final concentration of 75 uM of the ionizable lipid and 6 uM of TNS in a 75 mM TNS Buffer (10 mM of each of glycylglycine, acetate, imidazole, 20 mM borate, 25 mM NaCl) in order to keep a ratio TNS/ionizable of 0.08.” left out, “The results are illustrated in FIG. 37.” left out
LNP pKa was determined using the TNS assay. […] The Cytation 5 Cell Imaging Multi-Mode Reader (Biotek) was used to read Fluorescence (Ex321/Em445). The pH was measured in each well after TNS addition. […]

Data set [3] is described as follows: Dynamic Light Scattering for LNP size. In kind it is physicochemical. Particulars: number-average from DLS. As to the method:
as §1, with “37. […]” for “37.”

Data set [4] is described as follows: mRNA copies per LNP from molecular volume model and DLS diameter. The settings on record: average mRNA copies per LNP. Type of data set: physicochemical. As to the method:
Exemplary ADDE ionizable lipids. pKas were obtained from ACDLabs Percepta for the ionizable lipid, and by zeta potential and TNS for LNPs containing the ionizable lipids. LNP isoelectric pI was obtained from the zeta potential. LNP diameter is number-average from DLS. Average mRNA copies per LNP was calculated using a molecular volume model and the DLS diameter and is proportional to LNP volume.
LNPs were diluted to 6.25 ng/μL total mRNA in PBS pH=7.4 and transferred into a quartz cuvette (ZEN2112) to measure size by Dynamic Light Scattering (DLS) in the Zetasizer Nano ZS (Malvern Panalytical) using particle RI of 1.45 and absorption of 0.001 in PBS at 25° C. with viscosity of 0.888 cP and RI of 1.335. Measurements were made using a 1730 backscatter angle of detection previously equilibrated to 25° C. for 30 seconds in duplicates, each with 5 runs and 10 second run duration, without delay between measurements. […] Data was analyzed using a General-Purpose model with normal resolution. Diameter are reported as the number-average that corresponds more closely to physical size seen in electron microscopy versus the zeta-average. A molecular volume model described previously was used to estimate the number of mRNA copies in the LNP using the number average diameter to calculate LNP volume. LNPs were diluted into the TNS buffer described above at pH ranging from 3-10 for zeta potential measurement by Electrophoretic Light Scattering (ELS) in the Zetasizer Nano ZP (Malvern Panalytical) using the same material and dispersant parameters described above and the Smoluchowski model. Each measurement had voltage set manually at 80 Volts to avoid ohmic heating that occurred if voltage was set automatically. Measurements in the disposable folded capillary cuvette with an automatic attenuation selection for photon counts were made in triplicates for 20 runs each, and 30 second delay between each replicate. Mathematica was used to fit zeta potential data to the data to the extended Henderson-Hasselbalch equation Ψ=Ψ_max−((Ψ_max−Ψ_min))/((1+10^(((pKa−pH))/n))) to provide the pKa, n and low pH and high pH zeta potential limits Ψ_max and Ψ_min, respectively. The extended model is used here, since the LNP pKa is ionization-state-dependent in a way similar to a polyelectrolyte. […] The isoelectric pI was the pH found by interpolating zeta potential to zero. Cryoelectron Microscopy

The format of data set [5] is physicochemical. Particulars: Table 11a. As to the method: In certain embodiments, the pKa of the Ionizable Lipids of the Invention included in the LNP is measured by fluorescent enhancement of an anionic lipophilic dye TNS binding to the LNP containing the ionizable lipid. Prior studies have shown that the TNS pKa needs to be near 6.5 for efficient delivery to liver upon IV administration. The pKa in the aqueous phase can be predicted by software such ACDLabs Percepta, resulting in pKas that are higher than the TNS pKa. Given the importance of the LNP pKa in determining their efficiency, we developed new methods (zeta potential, ^1H NMR, modeling) to link the intrinsic pKa of the ionizable lipid to LNP ionization properties, in order to rationally design effective systems for mRNA delivery.
In certain embodiments, the hydrophilic DMG-PEG forms the shell of the LNP. The amount of nucleic acid is represented by the NP mole ratio of the amine on the ionizable lipid to the phosphate groups on the nucleic acid backbone and is typically 3-6. In certain embodiments, the pKa of the LNP to be in the 6-7 range corresponding to the pH in the early endosome. […] The pKa of the LNP was measured using the pH-dependence of fluorescence enhancement of the anionic dye TNS. In certain embodiments, the pKa-dependent endosomal release mechanism was described as an ion-pairing event between the cationic protonated ionizable lipid and anionic endosomal phospholipids where a divergent cone-shape lipid tail of the ionizable lipid facilitates membrane rupture.

The conditions of data set [6]: Table 11a; known ionizable lipids, LNP pKa; cited from earlier work.
The nature of another data set: physchem. Type of data set: physicochemical. Particulars: for pKa: water soluble analogue. As to the method:
The pH-dependence of proton NMR chemical shifts was used to measure the pKa's of the ionizable lipid water-soluble analogues (WSA) following published methods5,6. Chemical shifts of piperazine, imidazole, 2-chloroacetic acid and acetic acid were used as internal pH indicators. Solutions for MC3-WSA were prepared with 100 mM KCl, 2 mM piperazine, 2 mM imidazole, and 5 mM water soluble ionizable lipid analogue in 95% H2O-5% D2O. Solutions for the terminal(N1) and aza amines(N2) at the p-position of carboxylic esters of C24-WSA were prepared with 100 mM KCl, 2 mM piperazine, 2 mM imidazole, 0.2 mM DSS, and 5 mM water soluble ionizable lipid analogue in 95% H2O-5% D2O. Solutions for the internal amine (N3) of C24-WSA were prepared with 100 mM KCl, 2 mM chloroacetic acid, 2 mM acetic acid, 0.2 mM DSS, and 5 mM water soluble ionizable lipid analogue in 95% H2O-5% D2O. Solutions were split into two equal volumes and one titrated to a lower pH using 0.1 M HCl and the other to an upper pH using 0.1 M NaOH where the lower and upper pH bracketed the desired range of pH. Intermediate pH values were obtained by mixing different proportions of these two solutions. NMR measurements were performed on a Bruker 400 MHz spectrometer where 1H spectra were acquired at each of ˜24 pH values ranging from the lower to upper pH. […] Chemical shifts from piperazine, imidazole, 2-chloroacetic acid, and acetic acid were then used to calculate the pH of each solution according to published methods5,6 and the chemical shifts of protons adjacent to each nitrogen in the ionizable lipid water sluble analogue headgroup were fit to the Henderson-Hasselbalch equation to provide the pKa of each Nitrogen. Spectra are in Supplementary FIG. 2.

As to `CCCCC/C=C\C/C=C\CCCCCCCCOC(=O)CCN(CCC(=O)OCCCCCCCC/C=C\C/C=C\CCCCC)CCN(C)C` (racemic) [DL-C2/C2-DMA], in data set [1], the “pKa,ZP” value was 6.9 and the “pI, ZP” value was 7.1. The “pKa, TNS” value in data set [2] came to 8.0. The “Diameter (nm)” value in data set [3] worked out at 40 nm. For the same compound, in data set [4], the mRNA copies was 1.1.

Take `CCCCC/C=C\C/C=C\CCCCCCCCOC(=O)CCN(CCC(=O)OCCCCCCCC/C=C\C/C=C\CCCCC)CCN1CCN(C)CC1` (racemic) [DL-C2/C2-PipZ]: in data set [1], the “pKa,ZP” value is reported as 6.2 and the “pI, ZP” value was 7.6. In data set [2], the “pKa, TNS” value turned out to be 7.8. Also, the “Diameter (nm)” value in data set [3] is listed as 64 nm. Also, in data set [4], the mRNA copies is recorded as 4.3.

As to `CCCCC/C=C\C/C=C\CCCCCCCCOC(=O)CCN(CCC(=O)OCCCCCCCC/C=C\C/C=C\CCCCC)CCN1CCCC1` (racemic) [DL-C2/C2-Pyr], in data set [1], the “pKa,ZP” value turned out to be 6.8 and the “pI, ZP” value was 7.2. Also, the “pKa, TNS” value in data set [2] is recorded as 7.9. In data set [3], the “Diameter (nm)” value worked out at 48 nm. The same compound returned a mRNA copies in data set [4] of 1.5.

Turning to `CCCCCCCC(=O)N(CCCN1CCCC1)C(CCCCCCCCC(=O)OC(CCCC)CCCCCC)CCCCCCCCC(=O)OC(CCCC)CCCCCC` (stereo not drawn) [Acuitas Compound 15], in data set [5], the “ΔpKa = Classic-Galas” value is reported as 3.38 and the “ΔpKa = Classic-TNS” value is 3.98. For the same compound, in data set [6], the “pKa, TNS” value is reported as 6.32.

For the compound `CCCCCCCCCCC(CCCCCCCC)COC(=O)CCN(CCC(=O)OCC(CCCCCCCC)CCCCCCCCCC)CCN1CCN(C)CC1` (stereo not drawn) [BODD-C2/C2-PipZ], in data set [1], the “pKa,ZP” value turned out to be 5.4 and the “pI, ZP” value is 5.9. For the same compound, the “pKa, TNS” value in data set [2] is given as 6.6. Also, the “Diameter (nm)” value in data set [3] is 49 nm. In data set [4], the mRNA copies is given as 1.9.

With `CCCCCCCCCCC(CCCCCCCC)COC(=O)CCN(CCCCN1CCN(C)CC1)CCC(=O)OCC(CCCCCCCC)CCCCCCCCCC` (stereo not drawn) [BODD-C2/C4-PipZ], in data set [1], the “pKa,ZP” value was 4.9* and the “pI, ZP” value came to 5.8. Also, the “pKa, TNS” value in data set [2] came to 7.0. Also, in data set [3], the “Diameter (nm)” value is reported as 55 nm. This compound also showed a mRNA copies in data set [4] of 3.3.

Regarding `CCCCCCCCCCC(CCCCCCCC)COC(=O)CCN(CCCCN1CCN(C)CC1)CCC(=O)OCC(CCCCCCCC)CCCCCCCCCC` (stereo not drawn) [Lipid C24, Bis(2-octyldodecyl) 3,3′-((4-(4-methylpiperazin-1-yl)butyl)azanediyl)dipropionate], the “difference between NMR-measured and theoretical pKas” value in the data set “physchem” is listed as no more than 0.4 units.

As for `CN1CCN(CCCCN(CCC(=O)OC(C)(C)C)CCC(=O)OC(C)(C)C)CC1` [Lipid C24-WSA], the “difference between NMR-measured and theoretical pKas” value in the data set “physchem” is no more than 0.4 units. The pKa in “physchem” (read-out: pKa by 1H NMR, central nitrogen) is 3.7; in the data set “physchem” (read-out: pKa by 1H NMR, nitrogen closest to the linker) it was 7.5; in the data set “physchem” (read-out: pKa by 1H NMR, terminal nitrogen) it was 8.1.

Usually pKa stands for the negative logarithm of the acid dissociation constant.
